Consider 20 compounds from patent US20080085893A1, “MATRIX METALLOPROTEASE INHIBITORS” (priority 2006, published 2008).

Holding throughout (assay type): biochemical
Test [1] deals with T1, human MMP-9 (amino acids 107-446) (Homo sapiens, UniProt P14780).
T1 construct: human MMP-9 (amino acids 107-446); made in house
Description: MMP dose response assay for determining IC50, MMP-9. Here is the method: (§1) MMP Dose Response Assay for Determining IC50
(§2) The following method was used for determining IC50 values of different inhibitor compounds against multiple MMP enzymes. Frozen stocks of recombinantly produced MMPs were prepared in assay buffer (50 mM HEPES pH 7.4, 10 mM CaCl2, 0.05% Brij-35). […] Enzyme concentrations in the assay were determined empirically and set such that proteolytic activity was maintained in a linear range over the time-course of the experiment. […] Each concentration for each test compound was tested in triplicate. MMP enzymes were equilibrated with compounds for 1 hour at room temperature, then a fluorescent-quench substrate (Acetyl-Cys(Eu)-Pro-Leu-Gly-Leu-Lys-(QSY7)-Ala-Arg-amide) was added to a final concentration of 100 nM. […] Data was analyzed by first calculating average background value from wells that contained only substrate, and this value was subtracted from the entire plate. The 100%, or maximum value, was determined by averaging control wells that contained enzyme, substrate and DMSO. For each well, the percent of control was calculated by dividing the well value by the average DMSO value obtained above.

Test [2] deals with T2, human MMP-2 (amino acids 1-660) (Homo sapiens, UniProt P08253).
T2 construct: human MMP-2 (amino acids 1-660); made in house
T2 sequence (P08253 110-660): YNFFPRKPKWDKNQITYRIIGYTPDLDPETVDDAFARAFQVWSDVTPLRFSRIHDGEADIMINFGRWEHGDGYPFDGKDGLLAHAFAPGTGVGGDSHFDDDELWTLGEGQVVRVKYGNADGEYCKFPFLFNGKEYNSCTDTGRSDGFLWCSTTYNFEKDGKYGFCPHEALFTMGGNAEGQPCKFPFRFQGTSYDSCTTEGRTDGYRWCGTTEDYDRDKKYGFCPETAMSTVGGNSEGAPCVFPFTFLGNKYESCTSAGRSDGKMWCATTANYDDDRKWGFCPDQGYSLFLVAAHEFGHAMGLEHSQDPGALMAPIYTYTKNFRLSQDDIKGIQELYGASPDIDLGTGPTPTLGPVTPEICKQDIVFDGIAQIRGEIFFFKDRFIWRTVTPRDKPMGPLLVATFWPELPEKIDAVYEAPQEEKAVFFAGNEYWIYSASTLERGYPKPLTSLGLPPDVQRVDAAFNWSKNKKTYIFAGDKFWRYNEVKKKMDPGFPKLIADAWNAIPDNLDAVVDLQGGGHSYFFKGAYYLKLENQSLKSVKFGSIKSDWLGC
The test is described as follows: MMP dose response assay for determining IC50, MMP-2. The note with it: recombinant enzyme, fluorescent-quench substrate 100 nM; read-out: MMP-2. Here is the method:
as §1, §2

The target of test [3] is T3, human MMP-1 (amino acids 100-262) (Homo sapiens, UniProt P03956).
T3 construct: human MMP-1 (amino acids 100-262); made in house
T3 sequence (P03956 100-262): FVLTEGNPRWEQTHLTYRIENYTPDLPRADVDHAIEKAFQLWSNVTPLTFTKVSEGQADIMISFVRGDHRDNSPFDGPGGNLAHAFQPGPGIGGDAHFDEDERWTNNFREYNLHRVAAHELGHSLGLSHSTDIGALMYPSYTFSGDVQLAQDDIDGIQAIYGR
Description: MMP dose response assay for determining IC50, MMP-1. Conditions: recombinant catalytic domain, fluorescent-quench substrate 100 nM. The protocol:
as §1, §2

The mark [4] stands for this setting: recombinant enzyme, fluorescent-quench substrate 100 nM, read-out: MMP-9.

Where “and” joins values, the source holds several entries; their conditions need not be identical. Identical values can stand only once. Like-named read-outs stand apart in the source and are kept apart here.

T1 sequence (P14780 107-446): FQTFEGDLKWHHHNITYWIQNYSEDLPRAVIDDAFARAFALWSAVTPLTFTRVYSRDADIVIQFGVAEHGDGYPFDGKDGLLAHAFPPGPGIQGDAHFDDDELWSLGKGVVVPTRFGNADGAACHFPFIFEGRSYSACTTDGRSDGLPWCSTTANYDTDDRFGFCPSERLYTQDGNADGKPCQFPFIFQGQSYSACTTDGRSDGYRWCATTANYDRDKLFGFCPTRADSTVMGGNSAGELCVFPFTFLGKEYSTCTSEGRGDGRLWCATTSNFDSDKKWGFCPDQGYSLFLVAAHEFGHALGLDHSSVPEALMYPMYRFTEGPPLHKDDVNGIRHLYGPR

For `CCS(=O)(=O)N(C[C@H](O)C(=O)NO)c1ccc(Oc2ccc(C)cc2)cc1` [Example 20, N-Hydroxy (2S)-2-hydroxy-3-{N-[4-(4-methylphenoxy)phenyl],N-ethylsulfonylamino}propionamide], the IC50 was 21.4 nM and 33.6 nM in test [1] (setting [4]); 115 nM and 169 nM in test [2]; over 10000 nM in test [3].
Take `Cc1ccc(Oc2ccc(N(C[C@H](Nc3ccc(F)cc3)C(=O)NO)S(C)(=O)=O)cc2)cc1` [Example 38, N-Hydroxy (2S)-2-(4-fluorophenyl)amino-3-{N-[4-(4-methylphenoxy)phenyl],N-methanesulfonylamino}propionamide]: the IC50 in test [1] (setting [4]) was 1.32 nM; in test [2], 64.4 nM; in test [3] it was over 10000 nM.
As to `CS(=O)(=O)N(C[C@H](O)C(=O)NO)c1ccc(Oc2ccc(Cl)cc2)cc1` [Compound 1, N-Hydroxy (2S)-2-hydroxy-3-{N-[4-(4-chlorophenoxy)phenyl], N-methanesulfonylamino}propionamide], the IC50 was 5.04 nM and 4.35 nM in test [1] (setting [4]); 39.5 nM and 30.3 nM in test [2]; over 10000 nM in test [3].
Consider `Cc1ccc(Oc2ccc(N(C[C@H](Nc3cccc(Cl)c3)C(=O)NO)S(C)(=O)=O)cc2)cc1` [Example 44, N-Hydroxy (2S)-2-(3-chlorophenyl)amino-3-{N-[4-(4-methylphenoxy)phenyl],N-methanesulfonylamino}propionamide], for which the figures for the IC50 in test [1] (setting [4]), in test [2] and in test [3] were 19.7 nM, 333 nM and over 10000 nM, respectively.
Regarding `CO[C@@H](CN(c1ccc(Oc2ccc(C)cc2)cc1)S(C)(=O)=O)C(=O)NO` [Compound 2, N-Hydroxy (2S)-2-methoxy-3-{N-[4-(4-methylphenoxy)phenyl], N-methanesulfonylamino}propionamide], the IC50 in test [1] (MMP-9 (nM)) is 3.73 nM; in test [1] (setting [4]) it was 4.15 nM; in test [2] it was 43.6 nM and 28.8 nM; in test [3] it was over 10000 nM.
Turning to `COC[C@H]1CCCN1[C@@H](CN(c1ccc(Oc2ccc(C(F)(F)F)cc2)cc1)S(C)(=O)=O)C(=O)NO` [Example 81, N-Hydroxy (2S)-2-[(2R)-2-methoxymethylpyrrolidin-1-yl]-3-{N-[4-(4-trifluoromethylphenoxy)phenyl],N-methanesulfonylamino}propionamide], the IC50 in test [1] (setting [4]) is 3.16 nM; in test [2], 14.2 nM; in test [3] it was over 10000 nM.
For `Cc1ccc(Oc2ccc(N(C[C@H](OCc3ccccc3)C(=O)NO)S(C)(=O)=O)cc2)cc1` [Example 23, N-Hydroxy (2S)-2-benzyloxy-3-{N-[4-(4-methylphenoxy)phenyl],N-methanesulfonylamino}propionamide], the IC50 in test [1] (setting [4]) is 2.6 nM and 9.22 nM; in test [2], 56.2 nM and 90.4 nM; in test [3], over 10000 nM.
With `CS(=O)(=O)N(C[C@H](NCCc1c[nH]c2ccccc12)C(=O)NO)c1ccc(Oc2ccc(C(F)(F)F)cc2)cc1` [Example 78], the values for the IC50 in test [1] (setting [4]), in test [2] and in test [3] were 116 nM, 318 nM and over 10000 nM, respectively.
In the same order, the values of `Cc1ccc(Oc2ccc(N(C[C@H](NCc3ccccn3)C(=O)NO)S(C)(=O)=O)cc2)cc1` [Example 34, N-Hydroxy (2S)-3-{N-[4-(4-methylphenoxy)phenyl],N-methanesulfonylamino}-2-(pyridin2-yl)methylaminopropionamide] are 22.9 nM, 83.4 nM and over 10000 nM.
For `CS(=O)(=O)N(C[C@@H](O)C(=O)NO)c1ccc(Oc2ccccc2)cc1` [Example 11, N-Hydroxy (2R)-2-hydroxy-3-[N-(4-phenoxy)phenyl,N-methanesulfonylamino]propionamide], the values for the IC50 in test [1] (setting [4]), in test [2] and in test [3] were 106 nM, 472 nM and over 10000 nM, respectively.
For `Cc1ccc(Oc2ccc(N(C[C@H](Nc3ccc(Cl)cc3)C(=O)NO)S(C)(=O)=O)cc2)cc1` [Example 43, N-Hydroxy (2S)-2-(4-chlorophenyl)amino-3-{N-[4-(4-methylphenoxy)phenyl],N-methanesulfonylamino}propionamide], the values for the IC50 in test [1] (setting [4]), in test [2] and in test [3] were 22 nM, 336 nM and over 10000 nM, respectively.
For the compound `COC[C@@H]1CCCN1[C@@H](CN(c1ccc(Oc2ccc(C(F)(F)F)cc2)cc1)S(C)(=O)=O)C(=O)NO` [Example 82, N-Hydroxy (2S)-2-[(2S)-2-methoxymethylpyrrolidin-1-yl]-3-{N-[4-(4-trifluoromethylphenoxy)phenyl],N-methanesulfonylamino}propionamide], the IC50 in test [1] (setting [4]) is 7.32 nM; in test [2], 11.3 nM; in test [3], over 10000 nM.
Turning to `CS(=O)(=O)N(C[C@@H](C(=O)NO)N1CCC(c2ccccc2)CC1)c1ccc(Oc2ccc(C(F)(F)F)cc2)cc1` [Example 76, N-Hydroxy (2S)-3-{N-[4-(4-trifluoromethylphenoxy)phenyl],N-methanesulfonylamino}-2-(4-phenylpiperidin-1-yl)propionamide], the values for the IC50 in test [1] (setting [4]), in test [2] and in test [3] were 17 nM, 47.2 nM and over 10000 nM, respectively.
In the case of `CC(C)N(CCN1C(=O)N(C)C(C)(C)C1=O)[C@@H](CN(c1ccc(Oc2ccc(C(F)(F)F)cc2)cc1)S(C)(=O)=O)C(=O)NO` [Example 80, N-Hydroxy (2S)-2-{N-(2-propyl),N-[2-(1,5,5-trimethylhydantoin-3-yl)ethyl]amino}-3-{N-[4-(4-trifluoromethylphenoxy)phenyl]-N-methanesulfonylamino}propionamide], the values for the IC50 in test [1] (setting [4]), in test [2] and in test [3] were 2.67 nM, 24.3 nM and over 10000 nM, respectively.
The matching figures for `CS(=O)(=O)N(C[C@@H](C(=O)NO)N1CCN(c2ccc(Cl)cc2)CC1)c1ccc(Oc2ccc(C(F)(F)F)cc2)cc1` [Example 77, N-Hydroxy (2S)-2-[4-(4-chlorophenyl)piperazin-1-yl]-3-{N-[4-(4-trifluoromethylphenoxy)phenyl],N-methanesulfonylamino}propionamide]: 256 nM, 119 nM and over 10000 nM.
Consider `CS(=O)(=O)N(C[C@@H](C(=O)NO)N1CCN(C(=O)OCc2ccccc2)CC1)c1ccc(Oc2ccc(C(F)(F)F)cc2)cc1` [Example 67, N-Hydroxy (2S)-2-[(4-benzyloxycarbonyl)piperazin-1-yl]-3-{N-[4-(4-trifluoromethylphenoxy)phenyl],N-methanesulfonylamino}propionamide], for which the IC50 was 6.52 nM and 8.51 nM in test [1] (setting [4]); 4.76 nM and 4.37 nM in test [2]; over 10000 nM in test [3].
For the compound `Cc1ccc(Oc2ccc(N(C[C@H](NCC(C)C)C(=O)NO)S(C)(=O)=O)cc2)cc1` [Example 36, N-Hydroxy (2S)-3-{N-[4-(4-methylphenoxy)phenyl],N-methanesulfonylamino}-2-(2-methylpropyl)aminopropionamide], the IC50 is 1.27 nM in test [1] (setting [4]), 11.4 nM in test [2] and 9220 nM in test [3].
With `C[C@@H]1CN([C@@H](CN(c2ccc(Oc3ccc(C(F)(F)F)cc3)cc2)S(C)(=O)=O)C(=O)NO)C[C@H](C)O1` [Example 86, N-Hydroxy (2S)-2-(cis-2,6-dimethylmorpholin-4-yl)-3-{N-[4-(4-trifluoromethylphenoxy)phenyl],N-methanesulfonylamino}propionamide], the IC50 in test [1] (setting [4]) was 0.48 nM and 0.86 nM and 2.08 nM and 2.71 nM and 0.35 nM; in test [2], 2.69 nM and 4.57 nM and 9.44 nM and 8.32 nM and 3.04 nM; in test [3], 8040 nM.
On to `Cc1ccc(Oc2ccc(N(C[C@@H](OCc3ccccc3)C(=O)NO)S(C)(=O)=O)cc2)cc1` [Example 22, N-Hydroxy (2R)-2-benzyloxy-3-{N-[4-(4-methylphenoxy)phenyl],N-methanesulfonylamino}propionamide], for which the IC50 was 10.8 nM and 41.6 nM in test [1] (setting [4]); 210 nM and 342 nM in test [2]; over 10000 nM in test [3].
With `CS(=O)(=O)N(C[C@H](O)C(=O)NO)c1ccc(C#Cc2cccs2)cc1` [Example 64, N-Hydroxy (2S)-2-hydroxy-3-{N-[4-(4-thiophen-2-ylacetylene)phenyl],N-methanesulfonylamino}propionamide], the results for the IC50 in test [1] (setting [4]), in test [2] and in test [3] were 774 nM, 103 nM and over 10000 nM, respectively.
